Data: ChEMBL document CHEMBL4431344, “Synthesis of potent and broad genotypically active NS5B HCV non-nucleoside inhibitors binding to the thumb domain allosteric site 2 of the viral polymerase” (Bioorg Med Chem Lett, 2016)

Legend:
Hepatitis C virus = assay: Antiviral activity against HCV assessed as inhibition of viral RNA replication in replicon cells by luciferase reporter gene assay; format: functional, Hepacivirus hominis
[1] = target: RNA-directed RNA polymerase (Hepacivirus hominis, UniProt O39930); assay: Inhibition of HCV NS5B RNA dependent RNA polymerase
Sequence of RNA-directed RNA polymerase (O39930 whole entry): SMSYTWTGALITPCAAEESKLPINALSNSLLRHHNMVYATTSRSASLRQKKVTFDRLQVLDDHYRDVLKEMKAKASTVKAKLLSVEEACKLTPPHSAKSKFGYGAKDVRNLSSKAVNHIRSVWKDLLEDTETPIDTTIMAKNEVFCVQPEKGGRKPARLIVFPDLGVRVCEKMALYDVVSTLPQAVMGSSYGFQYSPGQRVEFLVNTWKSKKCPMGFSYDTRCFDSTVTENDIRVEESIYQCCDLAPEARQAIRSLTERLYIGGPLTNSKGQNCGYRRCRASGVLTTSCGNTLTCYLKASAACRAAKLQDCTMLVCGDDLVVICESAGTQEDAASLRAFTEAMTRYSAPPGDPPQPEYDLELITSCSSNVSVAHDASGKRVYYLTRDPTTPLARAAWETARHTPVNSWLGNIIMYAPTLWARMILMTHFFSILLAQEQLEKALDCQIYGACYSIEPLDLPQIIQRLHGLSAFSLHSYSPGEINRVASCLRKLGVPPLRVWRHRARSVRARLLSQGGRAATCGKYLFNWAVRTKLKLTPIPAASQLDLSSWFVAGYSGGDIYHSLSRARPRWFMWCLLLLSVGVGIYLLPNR

Genome polyprotein [2] = target: Genome polyprotein (Hepatitis C virus genotype 1b (strain HC-J4) (HCV), UniProt O92972); assay: Inhibition of HCV genotype 1b J4 NS5B RNA dependent RNA polymerase; parameters: species or system Hepatitis C virus isolate HC-J4
Sequence of Genome polyprotein (Hepatitis C virus genotype 1b (strain HC-J4) (HCV), UniProt O92972) (O92972 2420-3010 limits assumed): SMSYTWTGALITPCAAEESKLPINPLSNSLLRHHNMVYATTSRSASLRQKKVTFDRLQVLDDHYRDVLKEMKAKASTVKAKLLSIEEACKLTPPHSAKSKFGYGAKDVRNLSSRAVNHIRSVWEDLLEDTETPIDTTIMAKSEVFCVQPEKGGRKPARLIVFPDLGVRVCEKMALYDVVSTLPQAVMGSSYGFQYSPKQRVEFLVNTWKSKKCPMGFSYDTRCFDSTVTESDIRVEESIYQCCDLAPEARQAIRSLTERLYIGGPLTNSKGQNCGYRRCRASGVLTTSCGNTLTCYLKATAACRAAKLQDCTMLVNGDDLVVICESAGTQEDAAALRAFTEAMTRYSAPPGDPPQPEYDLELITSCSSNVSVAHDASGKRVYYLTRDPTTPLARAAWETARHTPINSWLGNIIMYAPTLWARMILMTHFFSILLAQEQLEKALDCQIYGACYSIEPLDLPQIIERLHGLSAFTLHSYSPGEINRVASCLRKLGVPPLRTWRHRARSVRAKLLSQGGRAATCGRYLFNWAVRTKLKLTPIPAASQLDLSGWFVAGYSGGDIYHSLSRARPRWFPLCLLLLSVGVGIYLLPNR

Genome polyprotein [3] = target: Genome polyprotein (Hepatitis C virus genotype 1b (isolate Con1) (HCV), UniProt Q9WMX2); assay: Inhibition of HCV genotype 1b Con1 NS5B RNA dependent RNA polymerase
Sequence of Genome polyprotein (Hepatitis C virus genotype 1b (isolate Con1) (HCV), UniProt Q9WMX2) (Q9WMX2 2420-3010 limits assumed): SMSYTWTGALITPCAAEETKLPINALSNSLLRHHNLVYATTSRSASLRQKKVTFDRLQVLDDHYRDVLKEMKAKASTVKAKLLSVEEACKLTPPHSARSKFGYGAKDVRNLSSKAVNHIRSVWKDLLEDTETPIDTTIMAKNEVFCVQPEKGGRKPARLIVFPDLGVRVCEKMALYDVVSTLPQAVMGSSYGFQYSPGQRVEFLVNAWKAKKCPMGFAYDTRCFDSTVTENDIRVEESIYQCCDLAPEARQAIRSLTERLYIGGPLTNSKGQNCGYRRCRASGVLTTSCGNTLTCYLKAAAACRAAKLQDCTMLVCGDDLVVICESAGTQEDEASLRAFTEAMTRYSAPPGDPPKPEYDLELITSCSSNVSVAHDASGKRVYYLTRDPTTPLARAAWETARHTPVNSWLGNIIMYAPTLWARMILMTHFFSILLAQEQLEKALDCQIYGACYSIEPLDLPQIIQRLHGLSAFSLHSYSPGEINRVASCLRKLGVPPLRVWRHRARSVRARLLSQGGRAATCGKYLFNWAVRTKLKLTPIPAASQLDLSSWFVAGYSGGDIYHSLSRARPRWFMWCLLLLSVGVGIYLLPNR

Compound | EC50 (Hepatitis C virus) [µM] | IC50 [1] [µM] | IC50 (Genome polyprotein [2]) [µM] | IC50 (Genome polyprotein [3]) [µM]
Cc1ccc(S(=O)(=O)Nc2cc(-c3ccccc3)sc2C(=O)O)c(C)c1 | 5 | 1 |  | 
Cc1ccc(P(=O)(Nc2cc(-c3ccc(Cl)cc3)sc2C(=O)O)OCC2CCOCC2)c(C)c1 (stereo not given) | 0.32 |  | 0.154 | 
COP(=O)(Nc1cc(-c2ccc(Cl)cc2)sc1C(=O)O)c1ccc(Cl)cc1C (stereo not given) | 1.55 |  | 0.026 | 
CCOP(=O)(Nc1cc(-c2ccc(Cl)cc2)sc1C(=O)O)C1CCC(C)CC1 (stereo not given) | > 8.3 |  | 3.74 | 
Cc1ccc(P(=O)(Nc2cc(-c3ccc(Cl)cc3)sc2C(=O)O)OC(C)C)c(C)c1 (stereo not given) | 2.28 |  | 0.189 | 
COP(=O)(Nc1cc(-c2ccc(-c3cc4nc(C)ccn4n3)cc2)sc1C(=O)O)c1ccc(C)cc1C (stereo not given) | 0.0007 |  | 0.0078 | 
Cc1ccc(P(=O)(Nc2cc(-c3ccc(Cl)cc3)sc2C(=O)O)OCCc2ccc(F)cc2)c(C)c1 (stereo not given) | 2.41 |  | 0.314 | 
CCOP(=O)(Nc1cc(-c2ccc(Cl)cc2)sc1C(=O)O)c1ccc(Cl)cc1C (stereo not given) | 2.92 |  | 0.081 | 
COP(=O)(Nc1cc(-c2ccc(-c3cc4ncccc4o3)cc2)sc1C(=O)O)c1ccc(C)cc1C (stereo not given) | 0.0007 |  | 0.0054 | 
CCCCOP(=O)(Nc1cc(-c2ccc(Cl)cc2)sc1C(=O)O)c1ccc(C)cc1C (stereo not given) | 2.71 |  | 0.17 | 
COP(=O)(Nc1cc(-c2ccc(-c3cc4ccccc4o3)cc2)sc1C(=O)O)c1ccc(C)cc1C (stereo not given) | 0.0017 |  | 0.0056 | 
COP(=O)(Nc1cc(-c2ccc(Cl)cc2)sc1C(=O)O)c1ccc(C)cc1C (stereo not given) | 0.66 |  | 0.021 | 
Cc1ccc(P(=O)(Nc2cc(-c3ccc(Cl)cc3)sc2C(=O)O)OCCC(C)C)c(C)c1 (stereo not given) | 3.56 |  | 0.298 | 
COP(=O)(Nc1cc(-c2ccc(Cl)cc2)sc1C(=O)O)c1ccc(Cl)cc1F (stereo not given) | 3.35 |  | 0.298 | 
COP(=O)(Nc1cc(-c2ccc(-c3cc4ccccc4s3)cc2)sc1C(=O)O)c1ccc(C)cc1C (stereo not given) | 0.0232 |  | 0.0163 | 
COP(=O)(Nc1cc(-c2ccc(-c3cc4nc(C)cc(N)n4n3)cc2)sc1C(=O)O)c1ccc(C)cc1C (stereo not given) | 0.0005 |  | 0.0051 | 0.009
Cc1ccc(P(=O)(Nc2cc(-c3ccc(Cl)cc3)sc2C(=O)O)OCC(C)C)c(C)c1 (stereo not given) | 3.04 |  | 0.223 | 
COP(=O)(c1ccc(C)cc1C)N(c1cc(-c2ccc(F)cc2)sc1C(=O)O)C(C)C (stereo not given) | 4.19 |  | 0.517 | 
Cc1ccc(P(=O)(Nc2cc(-c3ccc(Cl)cc3)sc2C(=O)O)OCc2cc3ccccc3o2)c(C)c1 (stereo not given) | 2.7 |  | 0.425 | 
CCOP(=O)(Nc1cc(-c2ccccc2)sc1C(=O)O)C1CCC(C)CC1 (stereo not given) | > 8.3 |  | > 10 | 
C=CP(=O)(Nc1cc(-c2ccc(Cl)cc2)sc1C(=O)O)OCC (stereo not given) | > 8.3 |  | > 10000 | 
COP(=O)(Nc1cc(-c2ccc(C#CC3CC3)cc2)sc1C(=O)O)c1ccc(C)cc1C (stereo not given) | 2.47 |  | 0.0458 | 
CCCOP(=O)(Nc1cc(-c2ccc(Cl)cc2)sc1C(=O)O)c1ccc(C)cc1C (stereo not given) | 3.53 |  | 0.147 | 
COP(=O)(Nc1cc(-c2ccc(C#Cc3ccsc3)cc2)sc1C(=O)O)c1ccc(C)cc1C (stereo not given) | 0.0048 |  | 0.0092 | 
CCOP(=O)(Nc1cc(-c2ccc(Cl)cc2)sc1C(=O)O)C1CC=C(C)CC1 (stereo not given) | > 8.3 |  | 1.13 | 
COP(=O)(Nc1cc(-c2ccc(F)cc2)sc1C(=O)O)c1ccc(C)cc1C (stereo not given) | 2.14 |  | 0.118 | 
COP(=O)(c1ccc(C)cc1C)N(C)c1cc(-c2ccc(Cl)cc2)sc1C(=O)O (stereo not given) | 2.82 |  | 0.059 | 
COCCOP(=O)(Nc1cc(-c2ccc(Cl)cc2)sc1C(=O)O)c1ccc(C)cc1C (stereo not given) | 2.66 |  | 0.135 | 
CC(C)N(c1cc(-c2ccccc2)sc1C(=O)O)C(=O)[C@H]1CC[C@H](C)CC1 | 0.369 to 0.6 | 1.5 | 0.035 | 
